# Measurements: US11464448B2, “Innate metabolic imaging of cellular systems” (Memorial Sloan Kettering Cancer Center, priority 2016, dated 2022)
# Key:
# [1] = tested on: orthotopic MycCaP prostate tumors; assay: Tumor volume by MRI in orthotopic MycCaP prostate model during iron chelation therapy; type: in vivo, FVB/N mice; settings: 150 mg/kg, 5 days/week oral gavage; two weeks of gavage beginning one-week post-implantation at 100 mm^3; vs sham (H2O); n=10, p<0.05
# Source text: (§1) Chelation of iron(III) has been proposed as a cancer treatment that causes reductions in tumor growth, presumably by reducing bioavailability of iron(III) to the cancer cells. However, no studies have addressed the possibility that chelation modulates TAM infiltration contributing to these anti-tumor effects. In order to investigate anti-tumor effects of iron chelation, FeMRI is used, as described herein, to monitor tumor growth in two mouse models. The faster growing MycCaP model and the slower growing TRAMP-C2 model were studied and contrasted to evaluate the effect of dose duration. Immune-competent, syngeneic murine FVB/N and C57BL/6 hosts underwent orthotopic prostatic injections of 5×10^4 cells (MycCaP and TRAMP-C2, respectively), and thereafter received either sham (H2O) or DFP (150 mg/kg, 5 days/week) by oral gavage until average primary tumor burden exceeded 1 cm^3 (determined by MM) in the treated group. […] At long dose durations (12 weeks) there was no growth of TRAMP-C2 orthotopic tumors implanted in syngeneic hosts (FIG. 3A, n=10, *p<0.001). […] (FIG. 3D, n=10, *p<0.05). […] Further, the ability to monitor TAM dynamics serially using FeMRI represents a technique that has translational use, bypassing the necessity for using invasive biopsy to obtain similar measures of stromal response to therapy.
# [2] = tested on: orthotopic TRAMP-C2 prostate tumors; assay: Tumor volume by MRI in orthotopic TRAMP-C2 prostate model during iron chelation therapy; type: in vivo, C57BL/6 mice; settings: 150 mg/kg, 5 days/week oral gavage; long dose duration (12 weeks); syngeneic hosts; n=10, p<0.001
# Source text: as §1
# [3] = tested on: high-iron(III)+ CD68+ TAMs in MycCaP tumors; assay: Whole slice histology (Prussian Blue iron(III), CD68) of TAM infiltration in MycCaP tumors; type: in vivo, FVB/N mice
# Source text: In order to further quantify these low- and high-[iron(III)] sub-populations, quantitative histology was used. […] In low-iron(III)^+ regions, prostate cancer cells were found sparsely studded with ferritin particles less than 1 μm^2 (at an approximate density of 1000 ferritin particles/field; no CD68^+ macrophages were observed (FIG. 2F, 2G n=18 fields, n=6 mice). In high-iron(III)^+ regions CD68^+ TAMs were found bearing dense hemosiderin deposits in groups of approximately 24 macrophages/TAM cluster (FIG. 2F, 2G, n=18 fields, n=6 mice). With these histological findings, it was possible to estimate the per-pixel TAM number in high-[iron(III)] MRI clusters at approximately 6 macrophages/pixel. To quantify the extent of infiltration of these TAM clusters, an image-processing algorithm was developed in-house with Matlab and ImageJ. […] Immune-competent, syngeneic murine FVB/N and C57BL/6 hosts underwent orthotopic prostatic injections of 5×10^4 cells (MycCaP and TRAMP-C2, respectively), and thereafter received either sham (H2O) or DFP (150 mg/kg, 5 days/week) by oral gavage until average primary tumor burden exceeded 1 cm^3 (determined by MM) in the treated group. […]
# [4] = tested on: high-[iron(III)] TAM clusters in MycCaP tumors; assay: FeMRI measurement of high-[iron(III)] TAM clusters in MycCaP tumors; type: in vivo, FVB/N mice
# Description: TAM clusters was measured by FeMRI at each week of treatment as a function of percent infiltration in MycCaP tumors. […] These low-[iron(III)] and high-[iron(III)] populations were mapped by thresholding the tumor Fe[(III)] distribution in these ranges on the FeMRI. The low-[iron(III)] map consisted of dense pixel clusters distributed throughout the tumor, while the high-[iron(III)] map contained sparse clusters with average cluster size of approximately 4 MRI pixel^2≈0.05 mm^2 primarily at the outer tumor margins (n=10 mice). To quantify the extent of infiltration of these TAM clusters, an image-processing algorithm was developed in-house with Matlab and ImageJ. This tool is based on concentric rake sampling that identifies […] CD68^+ or high-[iron(III)] colonies and maps them as a function of % infiltration into the tumor (inset FIG. 2J, […] outer edge, 100% tumor center) for arbitrarily sized histological (FIG. 2J, left […]) regions of interest. […] Immune-competent, syngeneic murine FVB/N and C57BL/6 hosts underwent orthotopic prostatic injections of 5×10^4 cells (MycCaP and TRAMP-C2, respectively), and thereafter received either sham (H2O) or DFP (150 mg/kg, 5 days/week) by oral gavage until average primary tumor burden exceeded 1 cm^3 (determined by MM) in the treated group. […]
smiles,measurement,setting,value
"Cc1c(O)c(=O)ccn1C [DFP, deferiprone]",smaller tumor volumes by the endpoint of the study,[1],40%
same,tumor growth,[2],no growth
same,histological TAM infiltration profile,"[3]; MycCaP tumor at week 3 of treatment, vs untreated group, p<0.05",less TAMs than the untreated group
same,high-iron(III)+ and CD68+ positive cells (histological analysis),"[3]; MycCaP tumors, 150 mg/kg oral gavage, data not shown",reduced
same,rates of TAM infiltration,"[4]; derived from changes of FeMRI infiltration profiles over time, n=10, p<0.05",reduced
same,FeMRI measurements of TAMs,[4]; over the full course of treatment,showed reductions
